US6210901A, “Specific binding substances for antibodies and their use for immunoassays or vaccines” (Roche Diagnostics GmbH, priority 1994, dated 2001)

Tests used:
[1] = system: antibodies which are directed against the core-epitope of the HCV virus; test: Immunoassay (streptavidin tube, peroxidase/ABTS) with biotinylated peptides; reactivity relative to the natural epitope core2m; assay type: binding; set-up: key to serum A rel. reactivity / serum B rel. reactivity: ratio to reference antigen core2m at the same concentration; conditions: for pos. control rel. reactivity: positive control serum, relative to core2m at same concentration; for serum A rel. reactivity: positive serum A; for serum B rel. reactivity: positive serum B
Description: Procedure for an immunoassay using biotinylated binding substances according to the invention against antibodies which are directed against the core-epitope of the HCV virus.
In the binding substances that were used one or several CO--NH peptide binding groups were replaced according to the invention (core2mI-core2mVI)compared to the natural epitope "core2m".
20 μl serum was placed in each case in streptavidin-coated ES 22 tubes from the Boehringer Mannheim Company (negative serum, positive serum, positive sera A-C). Then 1000 μl peptide solution (core 2m or core 2m I-VII concentration 100 ng/ml in potassium phosphate buffer 40 mmol/l, pH 7.0) was added by pipette and allowed to stand for 60 min in an ES 22 instrument from the Boehringer Mannheim Company. After 60 min incubation the peptide/serum solution is removed by pipette and the tubes are washed with test wash solution: 40 mmol/l potassium phosphate buffer, pH 7.0. Then 1000 μl peroxidase conjugate solution (peroxidase conjugated to an anti Fcγ antibody, 0.5 U/ml) is added by pipette and incubated for a further 60 min. The conjugate solution is removed by pipette and the tube is washed with washing solution. Afterwards 1000 μl ABTS solution (1.9 mmol/l) is added by pipette and it is incubated for a further 60 min. After 60 min incubation the solution is pipetted from the tube into a photometer and measured at 405 nm. […] The reactivities are derived from the measured result of the immunoassay relative to a standard curve.
The relative concentration used of the peptide antigens I-VI was derived from their HPLC integrals. The reactivity of the antigens I-VI was determined relative to the reference antigen core2m at the same concentration.

[2] = system: pancreatin; test: HCV core2m stress with pancreatin (protease degradation, analytical HPLC); assay type: in vitro ADME; conditions: for Area after 55 min (HPLC peptide peak) / Area after 125 min (HPLC peptide peak): pancreatin c = 1 mg/ml, 50 μl to 200 μl peptide
From the text: The protease stability of a binding substance according to the invention can be determined by exposing it to e.g. pancreatin, a mixture of frequently occurring proteases (including carboxy-peptidase A and B, trypsin, pepsin, chymotrypsin, elastase) or pronase (including aminopeptidase, carboxypeptidase, alkaline and neutral proteinase). The reduced enzymatic degradation of the binding substance can be determined by HPLC analysis of the appearance of peptide fragments over time.
Experimental procedure for core2m digestion with pancreatin.
Firstly core2m solutions were prepared in distilled water at an approximate c=1-3 mg/ml. These solutions were injected into the analytical HPLC (injection volume=40 μl).
These solutions were now diluted such that the area had to be […] when injected again into the HPLC. e.g. Area of the core2m IV solution was 600 000 on the analytical HPLC for an injection volume of 40 μl. Now two parts of this solution are diluted with one part of distilled water.
In each case 200 μl of these adjusted core2m solutions were admixed with 50 μl pancreatin solution (c=1 mg/ml).
A sample of these solutions was injected into the analytical HPLC after 55 min and after 125 min. As a reference a 200 μl sample of each core2m solution was admixed with 50 μl distilled water and injected into the analytical HPLC.
The percentage degradation of the respective peptide can be determined from the areas of the peptide peaks in the analytical HPLC.
Core2m solutions were adjusted to HPLC areas of 400 000 in 40 μl
Pancreatin solution c = 1 mg/ml in H2 O
200 μl of the adjusted core2m solution was allowed to react with 50

Row | Substance | pos. control rel. reactivity [1] | serum A rel. reactivity [1] | serum B rel. reactivity [1] | Area after 55 min (HPLC peptide peak) [2] | Area after 125 min (HPLC peptide peak) [2] | % (percentage resistance towards protease degradation) after 55 min ([2]; pancreatin) [%] | % (percentage resistance towards protease degradation) after 125 min ([2]; pancreatin) [%] | Serum C rel. reactivity ([1]; positive serum C) | resistance towards protease degradation ([2]; pancreatin, 55 min and 125 min) [%] | binding of the artificial epitopes (in words) ([1]; modified epitopes, Example 1)
1 | Bi-XUZUPQDVKFP4 QIVGG V [core2mIV] | 0.370 | 0.250 | 0.210 | 3057359 | 2715127 | 90 | 80 |  |  | 
2 | Bi-XUZUPQDVKFPGGGQIVGGV [core2m, reference compound] | 1.140 | 1.310 | 1.170 | 0 | 0 | 0 | 0 | 1.140 | 0 | 
3 | Bi-XUZUPQDVKFPGGGQIVI V [core2mI] | 1.140 | 0.621 | 0.959 | 3252704 | 2460332 | 100 | 76 |  |  | bind specifically and selectively
